Measured values as given in patent US11673889B2, “Substituted imidazo[4,5-c][1,8]naphthyridines as phosphodiesterase inhibitors” (Nanjing Zhengxiang Pharmaceuticals Co., Ltd., priority 2019, dated 2023).

Key:
ENPP-1, MDA-MB-231 cells = target: T1, ENPP-1, MDA-MB-231 cells (Homo sapiens, UniProt P22413); experiment: cell-based; settings: for inhibition at 20 µM: MDA-MB-231, read-out: % Inhibition (at 20 μM)
T1 sequence (P22413 1-925): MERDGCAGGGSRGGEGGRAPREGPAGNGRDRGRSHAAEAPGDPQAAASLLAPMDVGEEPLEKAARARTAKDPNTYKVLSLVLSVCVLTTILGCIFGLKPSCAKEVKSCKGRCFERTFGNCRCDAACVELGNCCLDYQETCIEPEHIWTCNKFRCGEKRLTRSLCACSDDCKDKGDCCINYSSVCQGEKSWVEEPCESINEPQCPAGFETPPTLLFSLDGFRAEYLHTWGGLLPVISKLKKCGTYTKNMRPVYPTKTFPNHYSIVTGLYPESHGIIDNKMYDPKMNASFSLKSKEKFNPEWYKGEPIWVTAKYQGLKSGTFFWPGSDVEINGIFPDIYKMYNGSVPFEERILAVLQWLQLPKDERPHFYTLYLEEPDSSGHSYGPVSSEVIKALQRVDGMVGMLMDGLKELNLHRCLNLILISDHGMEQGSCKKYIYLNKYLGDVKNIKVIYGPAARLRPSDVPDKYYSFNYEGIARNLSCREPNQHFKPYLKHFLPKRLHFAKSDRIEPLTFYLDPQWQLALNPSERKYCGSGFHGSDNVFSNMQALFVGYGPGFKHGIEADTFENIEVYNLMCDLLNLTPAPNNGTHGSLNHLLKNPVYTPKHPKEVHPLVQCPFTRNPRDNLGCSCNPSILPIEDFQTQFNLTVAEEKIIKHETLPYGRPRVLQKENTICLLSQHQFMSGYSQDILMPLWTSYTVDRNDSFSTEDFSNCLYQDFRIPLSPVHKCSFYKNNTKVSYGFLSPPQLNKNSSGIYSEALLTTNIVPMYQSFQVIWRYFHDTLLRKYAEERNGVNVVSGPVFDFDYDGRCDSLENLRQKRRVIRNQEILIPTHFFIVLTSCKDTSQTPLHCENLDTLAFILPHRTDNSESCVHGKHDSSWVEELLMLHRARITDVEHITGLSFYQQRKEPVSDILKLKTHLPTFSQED

Pharmacokinetics in mice = type: in vivo; settings: mouse, plasma, male CD-1 mice; for AUC / clearance / half-life / Vd: 1 mg/kg, iv; for Vd: read-out: Vdss
Description: A dosing solution of test sample was prepared at 1.0 mg/mL in 5% DMSO/40% PEG400/55% water and administered to male CD-1 mice (4-6 weeks old, 20-30 grams, 3 animals each group) via intravenous (IV) bolus at 1 mg/kg and by oral gavage (PO) at 5 mg/kg. Blood samples (˜0.03 mL each time point) were collected via the jugular vein into tubes containing sodium heparin as the anticoagulant at 0.033, 0.083, 0.25, 0.5, 1, 2, 4, 8 and 24 hours post dose for IV administration and 0.083, 0.25, 0.5, 1, 2, 4, 8 and 24 hours post dose for PO administration. The blood samples were then centrifuged for 5 minutes in a centrifuge refrigerated at 4° C. The resultant plasma samples were analyzed using LC/MS/MS to determine concentrations of test sample. Non-compartmental model with WinNonlin (Phoenix™, version 8.0) software was used to calculate pharmacokinetic (PK) parameters.

human soluble ENPP1 [1] = target: T2, human soluble ENPP1 (Homo sapiens, UniProt P22413); experiment: ENPP1 activity assay using p-Nitrophenyl-5′-AMP as a substrate; type: biochemical
T2 construct: 20 ng of human soluble ENPP1
T2 sequence (P22413 103-925 limits assumed): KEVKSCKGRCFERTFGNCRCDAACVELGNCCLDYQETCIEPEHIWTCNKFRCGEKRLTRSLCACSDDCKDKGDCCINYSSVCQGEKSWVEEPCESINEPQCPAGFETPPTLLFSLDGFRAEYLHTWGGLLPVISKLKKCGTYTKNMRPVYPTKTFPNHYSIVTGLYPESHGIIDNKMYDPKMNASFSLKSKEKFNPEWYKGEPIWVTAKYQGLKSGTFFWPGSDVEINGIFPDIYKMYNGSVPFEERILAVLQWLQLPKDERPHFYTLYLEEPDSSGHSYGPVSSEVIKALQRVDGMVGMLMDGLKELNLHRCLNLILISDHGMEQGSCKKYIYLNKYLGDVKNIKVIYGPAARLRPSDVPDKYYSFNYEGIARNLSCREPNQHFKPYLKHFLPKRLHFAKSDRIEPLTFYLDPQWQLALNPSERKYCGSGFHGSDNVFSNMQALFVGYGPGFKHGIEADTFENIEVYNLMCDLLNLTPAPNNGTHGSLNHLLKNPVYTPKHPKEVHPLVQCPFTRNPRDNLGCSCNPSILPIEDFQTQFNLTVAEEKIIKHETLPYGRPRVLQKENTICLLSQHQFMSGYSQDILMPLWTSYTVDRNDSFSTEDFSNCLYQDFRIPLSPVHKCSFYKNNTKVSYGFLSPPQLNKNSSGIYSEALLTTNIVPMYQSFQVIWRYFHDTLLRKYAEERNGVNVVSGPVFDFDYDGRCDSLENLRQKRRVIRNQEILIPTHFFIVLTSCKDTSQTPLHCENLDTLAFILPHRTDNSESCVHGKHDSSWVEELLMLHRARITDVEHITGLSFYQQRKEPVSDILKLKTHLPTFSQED
How it was run: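 Absorbance at 405 nm tracks p-nitrophenol from AMP-pNP hydrolysis after 1 h at room temperature, substrate added as 3 mM (2× final) following 30 min enzyme–compound preincubation. Enzyme: 35 ng human soluble ENPP1. IC50 fitted (variable-slope four-parameter) from percent inhibition normalized to max and blank.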

human soluble ENPP1 [2] = target: T2, human soluble ENPP1; experiment: ENPP1 activity assay using p-Nitrophenyl-5′-TMP as a substrate; type: biochemical
How it was run: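 Percent inhibition, set against uninhibited-enzyme and blank wells, was fitted to a four-parameter variable-slope model for IC50. Chromogenic read-out was p-nitrophenol released from TMP-pNP, added as a 2 mM […] solution for 1 h at RT. Before that, 20 ng soluble ENPP1 sat 30 min with compound.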

Compound | IC50 (ENPP-1, MDA-MB-231 cells) | inhibition at 20 µM (ENPP-1, MDA-MB-231 cells) | AUC (Pharmacokinetics in mice) | clearance (Pharmacokinetics in mice) | half-life (Pharmacokinetics in mice) | Vd (Pharmacokinetics in mice) | IC50 (human soluble ENPP1 [1]) | IC50 (human soluble ENPP1 [2]) | bioavailability (Pharmacokinetics in mice; oral gavage (PO) at 5 mg/kg vs IV 1 mg/kg)
COc1ccc2c(ncc3ncn(CC4CN(S(N)(=O)=O)C4)c32)n1 [Compound 52, 3-((7-methoxy-1H-imidazo[4,5-c][1,8]naphthyridin-1-yl)methyl)azetidine-1-sulfonamide] | 1300 nM | 79% | 179 ng·h/mL | 103 mL/min/kg | 0.35 h | 1.1 L/kg | 2.2 nM | 0.54 nM | –
COc1ccc2c(ncc3ncn([C@H](C)c4ccc(S(N)(=O)=O)cn4)c32)n1 [Compound 60, (R)-6-(1-(7-methoxy-1H-imidazo[4,5-c][1,8]naphthyridin-1-yl)ethyl)pyridine-3-sulfonamide] | 490 nM | 83% | 215 ng·h/mL | 78 mL/min/kg | 2.5 h | 11 L/kg | 1.51 nM | 0.31 nM | –
COc1ccc2c(ncc3ncn(Cc4ccc(S(N)(=O)=O)c(F)c4)c32)n1 [Compound 61, 2-fluoro-4-((7-methoxy-1H-imidazo[4,5-c][1,8]naphthyridin-1-yl)methyl)benzenesulfonamide] | 780 nM | 80% | 271 ng·h/mL | 62 mL/min/kg | 1.4 h | 4.5 L/kg | 1.9 nM | 0.53 nM | –
COc1ccc2c(ncc3ncn(Cc4ccc(S(N)(=O)=O)cc4F)c32)n1 [Compound 62, 3-fluoro-4-((7-methoxy-1H-imidazo[4,5-c][1,8]naphthyridin-1-yl)methyl)benzenesulfonamide] | 45 nM | 89% | 163 ng·h/mL | 105 mL/min/kg | 4.9 h | 39 L/kg | 1.5 nM | 0.1 nM | –
COc1ccc2c(ncc3ncn(Cc4ccc(S(N)(=O)=O)c(C(F)(F)F)c4)c32)n1 [Compound 65, 4-((7-methoxy-1H-imidazo[4,5-c][1,8]naphthyridin-1-yl)methyl)-2-(trifluoromethyl)benzenesulfonamide] | 1600 nM | 75% | 185 ng·h/mL | 92 mL/min/kg | 0.72 h | 3.1 L/kg | 8.7 nM | 3 nM | –
COc1ccc2c(ncc3nc(C)n(Cc4cc(F)c(S(N)(=O)=O)cc4F)c32)n1 [Compound 70, 2,5-difluoro-4-((7-methoxy-2-methyl-1H-imidazo[4,5-c][1,8]naphthyridin-1-yl)methyl)benzenesulfonamide] | 290 nM | 85% | 668 ng·h/mL | 26 mL/min/kg | 2.6 h | 4.3 L/kg | 1.2 nM | 0.64 nM | –
COc1ccc2c(ncc3nc(C)n(Cc4ccc(S(N)(=O)=O)c(F)c4)c32)n1 [Compound 71, 2-fluoro-4-((7-methoxy-2-methyl-1H-imidazo[4,5-c][1,8]naphthyridin-1-yl)methyl)benzenesulfonamide] | 1100 nM | 76% | 288 ng·h/mL | 60 mL/min/kg | 0.74 h | 2.8 L/kg | 2.9 nM | 1 nM | –
COc1ccc2c(ncc3nc(C)n(Cc4ccc(S(N)(=O)=O)cn4)c32)n1 [Compound 72, 6-((7-methoxy-2-methyl-1H-imidazo[4,5-c][1,8]naphthyridin-1-yl)methyl)pyridine-3-sulfonamide] | 340 nM | 81% | 303 ng·h/mL | 56 mL/min/kg | 1.4 h | 2.9 L/kg | 1.2 nM | 0.58 nM | –
COc1ccc2c(ncc3nc(C)n(Cc4ccc(S(N)(=O)=O)nc4)c32)n1 [Compound 73, 5-((7-methoxy-2-methyl-1H-imidazo[4,5-c][1,8]naphthyridin-1-yl)methyl)pyridine-2-sulfonamide] | 270 nM | 81% | 267 ng·h/mL | 63 mL/min/kg | 0.6 h | 1.6 L/kg | 0.96 nM | 0.36 nM | –
COc1ccc2c(ncc3nc(C4CC4)n(Cc4ccc(S(N)(=O)=O)cn4)c32)n1 [Compound 74, 6-((2-cyclopropyl-7-methoxy-1H-imidazo[4,5-c][1,8]naphthyridin-1-yl)methyl)pyridine-3-sulfonamide] | 85 nM | 81% | 138 ng·h/mL | 123 mL/min/kg | 1.4 h | 14 L/kg | 0.12 nM | 0.09 nM | –
COc1ccc2c(ncc3nc(CN4CCOCC4)n(Cc4ccc(S(N)(=O)=O)c(F)c4)c32)n1 [Compound 80, 2-fluoro-4-((7-methoxy-2-(morpholinomethyl)-1H-imidazo[4,5-c][1,8]naphthyridin-1-yl)methyl)benzenesulfonamide] | 1800 nM | 75% | 158 ng·h/mL | 107 mL/min/kg | 0.13 h | 1 L/kg | 6.4 nM | 1.8 nM | –
COc1ccc2c(ncc3nc(CC#N)n(Cc4ccc(S(N)(=O)=O)c(F)c4)c32)n1 [Compound 82, 4-((2-(cyanomethyl)-7-methoxy-1H-imidazo[4,5-c][1,8]naphthyridin-1-yl)methyl)-2-fluorobenzenesulfonamide] | 560 nM | 82% | 253 ng·h/mL | 66 mL/min/kg | 0.86 h | 2.2 L/kg | 2.4 nM | 0.8 nM | –
COc1ccc2c(ncc3[nH]c(=O)n(Cc4ccc(S(N)(=O)=O)cc4F)c32)n1 [Compound 102, 3-fluoro-4-((7-methoxy-2-oxo-2,3-dihydro-1H-imidazo[4,5-c][1,8]naphthyridin-1-yl)methyl)benzenesulfonamide] | 430 nM | 86% | 657 ng·h/mL | 26 mL/min/kg | 5.1 h | 5.2 L/kg | 0.74 nM | 0.51 nM | 8.4%
